In ChEMBL document CHEMBL4507259 (2021):
Calls of active or inactive are those of the source. The rule behind the calls is not given here.

Columns and labels:
[1] = target: Na+ channel (site 2); sodium channel alpha subunit (family) (Homo sapiens, UniProt P35498+P35499+Q01118+Q14524+Q15858+Q99250+Q9NY46+Q9UI33+Q9UQD0+Q9Y5Y9); assay: Na+ channel (site 2) CEREP ligand profiling; format: protein assay; conditions: compound concentration 10 uM
[2] = target: Tumor necrosis factor (Homo sapiens) (UniProt P01375); assay: TNF-alpha (h) CEREP ligand profiling; conditions: filed as agonist, Compound concentration 10.0 uM
[3] = target: Tyrosine-protein kinase Lyn (Homo sapiens) (UniProt P07948); conditions: Compound concentration 1000.0 nM
[4] = target: Serine/threonine-protein kinase MRCK alpha (Homo sapiens) (UniProt Q5VT25); conditions: Compound concentration 1000.0 nM
[5] = target: Aurora kinase A (Homo sapiens) (UniProt O14965); conditions: Compound concentration 1000.0 nM
[6] = target: Rhodopsin kinase GRK1 (Homo sapiens) (UniProt Q15835); conditions: Compound concentration 1000.0 nM
[7] = target: Fibroblast growth factor receptor 4 (Homo sapiens) (UniProt P22455); conditions: Compound concentration 1000.0 nM
[8] = target: SRSF protein kinase 2 (Homo sapiens) (UniProt P78362); conditions: Compound concentration 1000.0 nM
[9] = target: Serine/threonine-protein kinase haspin (Homo sapiens) (UniProt Q8TF76); conditions: Compound concentration 1000.0 nM
[10] = test system: Epidermal growth factor receptor (Homo sapiens), P00533 [UNDEFINED MUTATION]; conditions: Compound concentration 1000.0 nM
[11] = target: T1, Muscarinic acetylcholine receptor M4 (Homo sapiens) (UniProt P08173); assay: M4 (h) CEREP ligand profiling; conditions: filed as antagonist, Compound concentration 10.0 uM
T1 sequence (whole entry): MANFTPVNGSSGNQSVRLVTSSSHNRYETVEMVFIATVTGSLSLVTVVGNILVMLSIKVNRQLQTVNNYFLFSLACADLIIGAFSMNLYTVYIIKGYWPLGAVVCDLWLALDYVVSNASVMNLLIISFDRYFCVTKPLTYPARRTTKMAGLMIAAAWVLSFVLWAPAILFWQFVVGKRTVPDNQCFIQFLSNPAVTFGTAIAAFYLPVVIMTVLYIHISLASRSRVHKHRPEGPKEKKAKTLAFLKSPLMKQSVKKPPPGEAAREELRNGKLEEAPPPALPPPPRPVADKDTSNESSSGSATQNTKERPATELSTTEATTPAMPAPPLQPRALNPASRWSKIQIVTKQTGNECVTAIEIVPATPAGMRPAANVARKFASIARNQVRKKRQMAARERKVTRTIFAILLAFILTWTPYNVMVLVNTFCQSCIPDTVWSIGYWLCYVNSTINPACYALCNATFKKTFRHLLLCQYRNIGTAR

[12] = target: Rhodopsin kinase GRK7 (Homo sapiens) (UniProt Q8WTQ7); conditions: Compound concentration 1000.0 nM
[13] = test system: Mast/stem cell growth factor receptor Kit (Homo sapiens), P10721 [D816H]; conditions: Compound concentration 1000.0 nM
[14] = target: Cyclin-dependent kinase-like 5 (Homo sapiens) (UniProt O76039); conditions: Compound concentration 1000.0 nM
LNCaP-Clone-FGC = assay: LnCaP-FGC Proliferation; format: functional, cell-based; conditions: Homo sapiens
[15] = target: T2, 5-hydroxytryptamine receptor 1A (Homo sapiens) (UniProt P08908); conditions: Compound concentration 10.0 uM
T2 sequence (whole entry): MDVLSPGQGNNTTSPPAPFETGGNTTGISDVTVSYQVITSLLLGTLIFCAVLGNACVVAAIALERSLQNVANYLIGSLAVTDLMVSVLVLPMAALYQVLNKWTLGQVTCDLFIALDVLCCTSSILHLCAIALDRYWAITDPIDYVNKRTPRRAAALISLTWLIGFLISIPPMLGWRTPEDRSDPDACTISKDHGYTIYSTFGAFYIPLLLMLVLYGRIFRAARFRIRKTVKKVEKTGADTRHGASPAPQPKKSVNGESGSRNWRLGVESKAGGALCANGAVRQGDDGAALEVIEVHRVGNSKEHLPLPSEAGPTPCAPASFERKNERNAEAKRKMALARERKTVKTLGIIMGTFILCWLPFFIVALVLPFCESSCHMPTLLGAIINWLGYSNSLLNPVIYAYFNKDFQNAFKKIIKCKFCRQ

[16] = target: Non-receptor tyrosine-protein kinase TYK2 (Homo sapiens) (UniProt P29597); conditions: Compound concentration 1000.0 nM
[17] = target: Receptor-interacting serine/threonine-protein kinase 1 (Homo sapiens) (UniProt Q13546); conditions: Compound concentration 1000.0 nM
[18] = target: MAP kinase-interacting serine/threonine-protein kinase 1 (Homo sapiens) (UniProt Q9BUB5); conditions: Compound concentration 1000.0 nM
[19] = target: Dual specificity mitogen-activated protein kinase kinase 7 (Homo sapiens) (UniProt O14733); conditions: Compound concentration 1000.0 nM
[20] = target: Serine/threonine-protein kinase Sgk1 (Homo sapiens) (UniProt O00141); conditions: Compound concentration 1000.0 nM
[21] = target: Cyclin-dependent kinase-like 2 (Homo sapiens) (UniProt Q92772); conditions: Compound concentration 1000.0 nM
[22] = test system: Phosphatidylinositol 4,5-bisphosphate 3-kinase catalytic subunit alpha isoform (Homo sapiens), P42336 [E545K]; conditions: Compound concentration 1000.0 nM
[23] = target: Serine/threonine-protein kinase DCLK1 (Homo sapiens) (UniProt O15075); conditions: Compound concentration 1000.0 nM
[24] = test system: Tyrosine-protein kinase ABL1 (Homo sapiens), P00519 [F317L]; conditions: Compound concentration 1000.0 nM
[25] = target: Mitogen-activated protein kinase kinase kinase 1 (Homo sapiens) (UniProt Q13233); conditions: Compound concentration 1000.0 nM
[26] = target: Serine/threonine-protein kinase 17B (Homo sapiens) (UniProt O94768); conditions: Compound concentration 1000.0 nM
[27] = target: STE20/SPS1-related proline-alanine-rich protein kinase (Homo sapiens) (UniProt Q9UEW8); conditions: Compound concentration 1000.0 nM
[28] = target: Serine/threonine-protein kinase Nek3 (Homo sapiens) (UniProt P51956); conditions: Compound concentration 1000.0 nM
[29] = target: Tyrosine-protein kinase receptor UFO (Homo sapiens) (UniProt P30530); conditions: Compound concentration 1000.0 nM
[30] = target: Serine/threonine-protein kinase 32A (Homo sapiens) (UniProt Q8WU08); conditions: Compound concentration 1000.0 nM
[31] = target: Beta-adrenergic receptor kinase 1 (Homo sapiens) (UniProt P25098); conditions: Compound concentration 1000.0 nM
Beta-adrenergic receptor kinase 1 (Homo sapiens), sequence (P25098 whole entry): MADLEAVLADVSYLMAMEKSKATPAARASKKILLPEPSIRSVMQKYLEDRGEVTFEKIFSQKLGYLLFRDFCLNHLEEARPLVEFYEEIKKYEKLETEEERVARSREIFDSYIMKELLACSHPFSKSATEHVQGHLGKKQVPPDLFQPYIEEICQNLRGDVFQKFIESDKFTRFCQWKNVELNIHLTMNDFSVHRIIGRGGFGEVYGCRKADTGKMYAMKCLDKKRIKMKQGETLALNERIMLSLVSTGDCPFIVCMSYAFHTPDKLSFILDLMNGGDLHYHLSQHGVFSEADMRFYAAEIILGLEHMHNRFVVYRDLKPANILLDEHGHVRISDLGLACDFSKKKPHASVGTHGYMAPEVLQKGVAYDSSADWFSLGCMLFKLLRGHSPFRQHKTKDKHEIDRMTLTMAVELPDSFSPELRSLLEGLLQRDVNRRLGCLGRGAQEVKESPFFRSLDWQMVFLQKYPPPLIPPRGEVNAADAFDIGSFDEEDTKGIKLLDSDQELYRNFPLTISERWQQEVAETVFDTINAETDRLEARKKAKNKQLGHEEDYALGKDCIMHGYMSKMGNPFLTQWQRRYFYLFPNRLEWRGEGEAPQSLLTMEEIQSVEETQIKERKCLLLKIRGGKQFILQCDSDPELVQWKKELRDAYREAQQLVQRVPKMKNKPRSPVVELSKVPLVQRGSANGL

Serine/threonine-protein kinase Nek3 (Homo sapiens), sequence (P51956 whole entry): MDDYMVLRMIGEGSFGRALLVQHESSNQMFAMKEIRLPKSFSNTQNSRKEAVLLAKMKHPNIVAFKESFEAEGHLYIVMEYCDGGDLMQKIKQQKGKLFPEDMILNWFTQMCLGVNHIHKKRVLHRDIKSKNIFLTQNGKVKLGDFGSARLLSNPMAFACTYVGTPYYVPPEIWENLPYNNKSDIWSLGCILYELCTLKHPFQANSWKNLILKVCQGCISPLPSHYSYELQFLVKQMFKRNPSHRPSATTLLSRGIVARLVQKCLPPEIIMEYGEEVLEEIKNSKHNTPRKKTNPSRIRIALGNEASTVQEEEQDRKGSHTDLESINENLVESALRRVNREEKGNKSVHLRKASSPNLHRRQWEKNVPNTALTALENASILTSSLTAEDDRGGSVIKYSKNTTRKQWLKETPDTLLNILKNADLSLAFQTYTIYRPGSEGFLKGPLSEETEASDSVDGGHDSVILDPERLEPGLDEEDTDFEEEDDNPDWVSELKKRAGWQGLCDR
Cyclin-dependent kinase-like 2 (Homo sapiens), sequence (Q92772 whole entry, canonical isoform): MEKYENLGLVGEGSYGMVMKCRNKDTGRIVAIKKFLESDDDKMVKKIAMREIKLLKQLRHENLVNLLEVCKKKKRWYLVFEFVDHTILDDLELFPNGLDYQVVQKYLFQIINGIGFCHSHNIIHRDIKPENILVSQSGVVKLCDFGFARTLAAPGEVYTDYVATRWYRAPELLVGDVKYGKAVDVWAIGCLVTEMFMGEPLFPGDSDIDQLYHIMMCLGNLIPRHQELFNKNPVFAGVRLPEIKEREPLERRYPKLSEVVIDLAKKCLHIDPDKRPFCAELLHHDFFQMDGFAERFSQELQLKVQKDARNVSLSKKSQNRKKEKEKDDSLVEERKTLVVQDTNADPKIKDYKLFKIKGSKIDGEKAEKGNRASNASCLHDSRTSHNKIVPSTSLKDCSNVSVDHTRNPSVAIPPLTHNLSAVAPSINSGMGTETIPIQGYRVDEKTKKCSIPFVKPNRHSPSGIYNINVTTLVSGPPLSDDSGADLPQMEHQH
Serine/threonine-protein kinase Sgk1 (Homo sapiens), sequence (O00141 whole entry): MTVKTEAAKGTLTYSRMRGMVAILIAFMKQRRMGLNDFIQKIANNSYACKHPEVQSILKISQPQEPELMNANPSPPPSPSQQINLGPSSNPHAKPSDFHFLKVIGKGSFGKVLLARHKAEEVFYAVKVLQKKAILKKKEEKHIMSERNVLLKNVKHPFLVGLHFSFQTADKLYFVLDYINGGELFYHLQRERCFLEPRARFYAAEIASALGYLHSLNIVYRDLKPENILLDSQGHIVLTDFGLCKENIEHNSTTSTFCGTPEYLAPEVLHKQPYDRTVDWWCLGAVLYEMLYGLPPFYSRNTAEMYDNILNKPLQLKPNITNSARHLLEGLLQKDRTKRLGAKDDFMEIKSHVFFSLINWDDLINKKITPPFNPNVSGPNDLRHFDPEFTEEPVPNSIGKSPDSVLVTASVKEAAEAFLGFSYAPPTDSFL
Serine/threonine-protein kinase 17B (Homo sapiens), sequence (O94768 whole entry): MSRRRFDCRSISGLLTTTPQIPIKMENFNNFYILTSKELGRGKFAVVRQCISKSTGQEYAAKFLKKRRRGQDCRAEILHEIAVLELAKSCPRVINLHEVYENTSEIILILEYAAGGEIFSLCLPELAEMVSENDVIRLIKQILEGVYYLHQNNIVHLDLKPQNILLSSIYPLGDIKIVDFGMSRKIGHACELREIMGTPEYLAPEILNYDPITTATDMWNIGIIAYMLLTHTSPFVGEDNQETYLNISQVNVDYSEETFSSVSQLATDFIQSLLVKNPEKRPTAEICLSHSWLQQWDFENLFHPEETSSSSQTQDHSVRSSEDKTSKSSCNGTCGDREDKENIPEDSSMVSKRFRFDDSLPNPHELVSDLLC
Receptor-interacting serine/threonine-protein kinase 1 (Homo sapiens), sequence (Q13546 whole entry): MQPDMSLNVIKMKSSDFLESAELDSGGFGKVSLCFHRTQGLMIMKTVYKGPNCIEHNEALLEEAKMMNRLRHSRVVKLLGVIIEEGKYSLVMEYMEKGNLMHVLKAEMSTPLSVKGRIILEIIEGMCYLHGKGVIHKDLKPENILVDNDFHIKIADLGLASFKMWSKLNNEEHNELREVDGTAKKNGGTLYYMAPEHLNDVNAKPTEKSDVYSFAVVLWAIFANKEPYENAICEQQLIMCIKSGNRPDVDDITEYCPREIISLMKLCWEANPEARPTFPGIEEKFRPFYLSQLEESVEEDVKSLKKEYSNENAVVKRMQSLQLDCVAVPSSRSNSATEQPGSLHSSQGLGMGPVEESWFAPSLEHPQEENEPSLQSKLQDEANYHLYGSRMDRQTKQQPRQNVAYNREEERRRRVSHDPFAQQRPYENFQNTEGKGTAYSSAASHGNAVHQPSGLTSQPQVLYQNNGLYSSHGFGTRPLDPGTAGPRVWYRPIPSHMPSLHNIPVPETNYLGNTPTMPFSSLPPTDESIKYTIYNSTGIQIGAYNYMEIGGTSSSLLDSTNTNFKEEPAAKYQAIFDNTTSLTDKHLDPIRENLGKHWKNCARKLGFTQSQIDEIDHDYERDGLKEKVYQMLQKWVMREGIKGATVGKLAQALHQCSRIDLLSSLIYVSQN
Rhodopsin kinase GRK7 (Homo sapiens), sequence (Q8WTQ7 whole entry): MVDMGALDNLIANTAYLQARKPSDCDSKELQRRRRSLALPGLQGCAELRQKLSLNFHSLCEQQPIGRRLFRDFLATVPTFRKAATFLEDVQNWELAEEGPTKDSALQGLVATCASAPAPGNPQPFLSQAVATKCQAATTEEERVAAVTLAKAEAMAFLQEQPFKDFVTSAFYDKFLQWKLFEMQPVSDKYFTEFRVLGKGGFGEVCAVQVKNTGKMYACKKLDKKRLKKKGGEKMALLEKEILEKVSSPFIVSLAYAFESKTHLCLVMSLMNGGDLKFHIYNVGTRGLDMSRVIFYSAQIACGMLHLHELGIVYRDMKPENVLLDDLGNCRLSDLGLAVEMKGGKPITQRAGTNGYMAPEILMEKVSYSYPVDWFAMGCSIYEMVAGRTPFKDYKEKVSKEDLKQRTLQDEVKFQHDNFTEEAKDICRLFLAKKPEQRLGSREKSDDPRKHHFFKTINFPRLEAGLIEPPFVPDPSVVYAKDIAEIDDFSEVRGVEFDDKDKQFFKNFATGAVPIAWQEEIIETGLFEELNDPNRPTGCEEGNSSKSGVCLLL
Serine/threonine-protein kinase haspin (Homo sapiens), sequence (Q8TF76 whole entry): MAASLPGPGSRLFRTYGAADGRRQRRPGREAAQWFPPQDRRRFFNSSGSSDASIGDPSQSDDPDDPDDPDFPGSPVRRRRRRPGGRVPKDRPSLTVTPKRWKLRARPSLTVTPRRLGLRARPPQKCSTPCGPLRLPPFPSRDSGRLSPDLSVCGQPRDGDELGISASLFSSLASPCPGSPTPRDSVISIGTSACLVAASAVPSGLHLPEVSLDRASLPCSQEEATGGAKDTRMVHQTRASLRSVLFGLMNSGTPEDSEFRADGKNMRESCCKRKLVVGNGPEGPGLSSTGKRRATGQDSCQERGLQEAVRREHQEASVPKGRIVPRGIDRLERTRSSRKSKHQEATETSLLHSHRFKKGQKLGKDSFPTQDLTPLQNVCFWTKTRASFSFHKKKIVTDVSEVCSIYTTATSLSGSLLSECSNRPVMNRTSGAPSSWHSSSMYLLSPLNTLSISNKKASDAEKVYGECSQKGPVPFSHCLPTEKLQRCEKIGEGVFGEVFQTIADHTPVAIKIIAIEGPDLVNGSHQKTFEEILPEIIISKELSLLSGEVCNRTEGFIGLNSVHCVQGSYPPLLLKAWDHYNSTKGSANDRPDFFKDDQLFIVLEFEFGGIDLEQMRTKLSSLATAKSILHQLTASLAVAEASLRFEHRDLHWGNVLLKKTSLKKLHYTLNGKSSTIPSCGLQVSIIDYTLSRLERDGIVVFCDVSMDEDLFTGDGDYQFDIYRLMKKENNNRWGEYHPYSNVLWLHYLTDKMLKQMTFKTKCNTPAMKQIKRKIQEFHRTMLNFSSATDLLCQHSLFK
Serine/threonine-protein kinase 32A (Homo sapiens), sequence (Q8WU08 whole entry): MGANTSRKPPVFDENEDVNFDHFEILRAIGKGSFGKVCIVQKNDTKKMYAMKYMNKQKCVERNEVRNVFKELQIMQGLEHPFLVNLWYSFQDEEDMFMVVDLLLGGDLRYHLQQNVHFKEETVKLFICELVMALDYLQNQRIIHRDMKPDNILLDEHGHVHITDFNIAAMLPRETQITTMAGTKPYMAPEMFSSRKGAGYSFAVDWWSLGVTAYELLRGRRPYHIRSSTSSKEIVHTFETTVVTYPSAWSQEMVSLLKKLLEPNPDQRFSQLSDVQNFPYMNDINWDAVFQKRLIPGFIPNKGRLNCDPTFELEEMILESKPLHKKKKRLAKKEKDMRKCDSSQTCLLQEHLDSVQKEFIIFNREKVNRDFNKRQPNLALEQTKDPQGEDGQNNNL

| SMILES | inhibition at 10 µM [1] | inhibition [2] [%] | residual activity [3] [%] | residual activity [4] [%] | residual activity [5] [%] | residual activity [6] [%] | residual activity [7] [%] | residual activity [8] [%] | residual activity [9] [%] | residual activity [10] [%] | inhibition [11] [%] | residual activity [12] [%] | residual activity [13] [%] | residual activity [14] [%] | IC50 (LNCaP-Clone-FGC) | inhibition [15] [%] | residual activity [16] [%] | residual activity [17] [%] | residual activity [18] [%] | residual activity [19] [%] | further results |
| --- | --- | --- | --- | --- | --- | --- | --- | --- | --- | --- | --- | --- | --- | --- | --- | --- | --- | --- | --- | --- | --- |
| CNC(=O)Nc1ccc2c(c1)[C@@]1(CC2)OC(=O)N(CC(=O)N(Cc2ccc(F)cc2)[C@@H](C)C(F)(F)F)C1=O [A-486] | -5% (not active) | 1 | 100 | 98 | 79 | 73 | 98 | 100 | 83 | 85 | 6 | 85 | 70 | 82 | > 10 µM (not active) | 4.17 | 92 | 93 | 94 | 85 | residual activity [20]: 54%; residual activity [21]: 83%; residual activity [22]: 76%; residual activity [23]: 76%; residual activity [24]: 66%; residual activity [25]: 95%; residual activity [26]: 77%; residual activity [27]: 100%; residual activity [28]: 69%; residual activity [29]: 67%; residual activity [30]: 100%; residual activity [31]: 76% |
| CNC(=O)Nc1ccc2c(c1)CC[C@@]21OC(=O)N(CC(=O)N(Cc2ccc(F)cc2)[C@@H](C)C(F)(F)F)C1=O [A-485] | 19% (not active) | 1 | 89 | 100 | 80 | 82 | 100 | 100 | 100 | 64 | 14 | 83 | 67 | 69 | 0.381 µM (active) | 6.87 | 91 | 100 | 67 | 97 | residual activity [20]: 63%; residual activity [21]: 100%; residual activity [22]: 80%; residual activity [23]: 96%; residual activity [24]: 64%; residual activity [25]: 68%; residual activity [26]: 100%; residual activity [27]: 100%; residual activity [28]: 58%; residual activity [29]: 90%; residual activity [30]: 88%; residual activity [31]: 74% |
